Data set [1] can be described thus: The drug is tested on Clostridium scindens strain: ATCC35704 for biotransformation. The drug concentrations were measured before and after a 12-h incubation by liquid-chromatography-coupled mass spectrometry (LC–MS). The note with it: 2 µM.
Data set [2] can be described thus: The drug is tested on Clostridium sp. strain: fecal isolate for biotransformation. The drug concentrations were measured before and after a 12-h incubation by liquid-chromatography-coupled mass spectrometry (LC–MS). Particulars: 2 µM.
The conditions of data set [3]: bacteroides thetaiotaomicron, 12 h, 2 µM.
Description: The drug is tested on Bacteroides thetaiotaomicron strain: 3731 for biotransformation. The drug concentrations were measured before and after a 12-h incubation by liquid-chromatography-coupled mass spectrometry (LC–MS)
For data set [4] the following is noted: parabacteroides distasonis, 12 h, 2 µM.
Description: The drug is tested on Parabacteroides distasonis strain: ATCC8503 for biotransformation. The drug concentrations were measured before and after a 12-h incubation by liquid-chromatography-coupled mass spectrometry (LC–MS)
A short description of data set [5]: The drug is tested on Enterobacter cancerogenus strain: ATCC35316 for biotransformation. The drug concentrations were measured before and after a 12-h incubation by liquid-chromatography-coupled mass spectrometry (LC–MS). Particulars: 2 µM.
A short description of data set [6]: The drug is tested on Ruminococcus gnavus strain: ATCC29149 for biotransformation. The drug concentrations were measured before and after a 12-h incubation by liquid-chromatography-coupled mass spectrometry (LC–MS). Particulars: mediterraneibacter gnavus, 2 µM.
Data set [7] is described as follows: The drug is tested on Edwardsiella tarda strain: ATCC23685 for biotransformation. The drug concentrations were measured before and after a 12-h incubation by liquid-chromatography-coupled mass spectrometry (LC–MS). Particulars: 2 µM.
Data set [8] can be described thus: The drug is tested on Anaerococcus hydrogenalis strain: DSM7454 for biotransformation. The drug concentrations were measured before and after a 12-h incubation by liquid-chromatography-coupled mass spectrometry (LC–MS). The note with it: 2 µM.
Data set [9] in a line: The drug is tested on Providencia rettgeri strain: DSM1131 for biotransformation. The drug concentrations were measured before and after a 12-h incubation by liquid-chromatography-coupled mass spectrometry (LC–MS). In kind it is ADME. Details: dose 2 uM, timepoint 0 vs 12 hours. The note with it: 2 µM.
The nature of data set [10]: The drug is tested on Anaerotruncus colihominis strain: DSM17241 for biotransformation. The drug concentrations were measured before and after a 12-h incubation by liquid-chromatography-coupled mass spectrometry (LC–MS). The note with it: 2 µM.
Data set [11] in a line: The drug is tested on Subdoligranulum variabile strain: DSM15176 for biotransformation. The drug concentrations were measured before and after a 12-h incubation by liquid-chromatography-coupled mass spectrometry (LC–MS). The note with it: 2 µM.
Data set [12] can be described thus: The drug is tested on Bacteroides finegoldii strain: DSM17565 for biotransformation. The drug concentrations were measured before and after a 12-h incubation by liquid-chromatography-coupled mass spectrometry (LC–MS). The note with it: 2 µM.
The nature of data set [13]: The drug is tested on Blautia luti strain: DSM14534 for biotransformation. The drug concentrations were measured before and after a 12-h incubation by liquid-chromatography-coupled mass spectrometry (LC–MS). The class given is ADME. Details: dose 2 uM, timepoint 0 vs 12 hours. The note with it: 2 µM.
The nature of data set [14]: The drug is tested on Bacteroides cellulosilyticus strain: DSM14838 for biotransformation. The drug concentrations were measured before and after a 12-h incubation by liquid-chromatography-coupled mass spectrometry (LC–MS). The note with it: 2 µM.
A short description of data set [15]: The drug is tested on Parabacteroides merdae strain: ATCC43184 for biotransformation. The drug concentrations were measured before and after a 12-h incubation by liquid-chromatography-coupled mass spectrometry (LC–MS). The note with it: 2 µM.
A short description of data set [16]: The drug is tested on Bacteroides caccae strain: ATCC43185 for biotransformation. The drug concentrations were measured before and after a 12-h incubation by liquid-chromatography-coupled mass spectrometry (LC–MS). The note with it: 2 µM.
The conditions of data set [17]: bacteroides stercoris, 12 h, 2 µM.
Description: The drug is tested on Bacteroides stercoris strain: ATCC43183 for biotransformation. The drug concentrations were measured before and after a 12-h incubation by liquid-chromatography-coupled mass spectrometry (LC–MS)
Data set [18] is described as follows: The drug is tested on Clostridium sporogenes strain: ATCC15579 for biotransformation. The drug concentrations were measured before and after a 12-h incubation by liquid-chromatography-coupled mass spectrometry (LC–MS). Particulars: 2 µM.
A short description of data set [19]: The drug is tested on Bacteroides fragilis strain: ATCC43859 for biotransformation. The drug concentrations were measured before and after a 12-h incubation by liquid-chromatography-coupled mass spectrometry (LC–MS). Particulars: 2 µM.
Data set [20] in a line: The drug is tested on Collinsella intestinalis strain: DSM13280 for biotransformation. The drug concentrations were measured before and after a 12-h incubation by liquid-chromatography-coupled mass spectrometry (LC–MS). The note with it: 2 µM.

Each structure is given as a SMILES string.

As to `N[C@@H](Cc1ccc(N(CCCl)CCCl)cc1)C(=O)O`, the “Bacterial Biotransformation” value in data set [1], in [2], in [3], in [4], in data set [5] and in [6] was “Compound metabolized” in each case. The “Bacterial Biotransformation” value in data set [7], in data set [8], in [9], in data set [10], in [11] and in data set [12] was “Compound metabolized” throughout. Further, the “Bacterial Biotransformation” value in [13], in [14], in data set [15], in [16], in data set [17] and in data set [18] was “Compound metabolized” in each case. Moreover, the “Bacterial Biotransformation” value in [19] and in data set [20] was “Compound metabolized” in each case.

For `CN1CCc2cccc3c2[C@H]1Cc1ccc(O)c(O)c1-3` [APOMORPHINE], the “Bacterial Biotransformation” value in data set [1], in [2], in data set [3], in data set [4], in data set [5] and in data set [6] was “Compound NOT metabolized” throughout. The “Bacterial Biotransformation” value in data set [7], in [8], in [9], in data set [10], in data set [11] and in data set [12] was “Compound NOT metabolized” each time. The “Bacterial Biotransformation” value in data set [13], in data set [14], in [15], in [16], in data set [17] and in data set [18] was “Compound NOT metabolized” in each case. The “Bacterial Biotransformation” value in data set [19] and in [20] was “Compound NOT metabolized” each time.

For the compound `C[C@@H]1CC[C@H]2[C@@H](C)C(=O)O[C@@H]3O[C@@]4(C)CC[C@@H]1[C@]32OO4` [ARTEMISININ], the “Bacterial Biotransformation” value in data set [1], in data set [2], in [3], in [4], in data set [5] and in data set [6] was “Compound metabolized” in each case. For the same compound, the “Bacterial Biotransformation” value in [7], in [8], in [9], in data set [10], in data set [11] and in [12] was “Compound metabolized” in each case. Besides, the “Bacterial Biotransformation” value in data set [13], in data set [14], in data set [15], in [16], in data set [17] and in [18] was “Compound metabolized” throughout. Moreover, the “Bacterial Biotransformation” value in data set [19] and in data set [20] was “Compound metabolized” each time.

As to `CC(=O)Oc1ccc(C(c2ccc(OC(C)=O)cc2)c2ccccn2)cc1` [BISACODYL], the “Bacterial Biotransformation” value in data set [1], in data set [2], in data set [3], in data set [4], in data set [5] and in [6] was “Compound metabolized” throughout. Besides, the “Bacterial Biotransformation” value in [7], in [8], in data set [9], in data set [10], in data set [11] and in data set [12] was “Compound metabolized” throughout. Besides, the “Bacterial Biotransformation” value in [13], in data set [14], in data set [15], in [16], in [17] and in data set [18] was “Compound metabolized” in each case. In addition, the “Bacterial Biotransformation” value in [19] and in data set [20] was “Compound metabolized” throughout.

Take `CCN(CC)CCOCCOC(=O)C1(c2ccccc2)CCCC1.O=C(O)CC(O)(CC(=O)O)C(=O)O` [CARBETAPENTANE CITRATE]: the “Bacterial Biotransformation” value in data set [1], in data set [2], in [3], in [4], in [5] and in [6] was “Compound metabolized” each time. Moreover, the “Bacterial Biotransformation” value in data set [7], in [8], in data set [9], in [10], in data set [11] and in data set [12] was “Compound metabolized” in each case. The “Bacterial Biotransformation” value in [13], in data set [14], in data set [15], in [16], in data set [17] and in data set [18] was “Compound metabolized” in each case. Also, the “Bacterial Biotransformation” value in data set [19] was “Compound NOT metabolized”; in data set [20], “Compound metabolized”.

With `COc1ccccc1OCCNCC(O)COc1cccc2[nH]c3ccccc3c12` (stereo not given) [CARVEDILOL], the “Bacterial Biotransformation” value in data set [1] is “Compound NOT metabolized”; in [2] it was “Compound NOT metabolized”; in data set [3] it was “Compound metabolized”; in [4], “Compound metabolized”; in data set [5], “Compound metabolized”; in data set [6] it was “Compound NOT metabolized”. Besides, the “Bacterial Biotransformation” value in [7] was “Compound NOT metabolized”; in [8], “Compound metabolized”; in data set [9] it was “Compound NOT metabolized”; in data set [10], “Compound metabolized”; in data set [11] it was “Compound NOT metabolized”; in [12], “Compound metabolized”. The “Bacterial Biotransformation” value in data set [13], in data set [14], in [15], in data set [16], in [17] and in [18] was “Compound metabolized” in each case. Further, the “Bacterial Biotransformation” value in data set [19] and in [20] was “Compound NOT metabolized” throughout.

For the origin of these results see ChEMBL document CHEMBL5303573, “Mapping human microbiome drug metabolism by gut bacteria and their genes” (Nature, 2019).
